How the values were obtained:
PKC in HeLa cells = assay: Microinjection studies in TPA-stimulated living HeLa cells; format: cell-based; conditions: co-injected with peptide 2; 20 μM estimated intracellular concentration
Protocol: Microinjection Studies-Subconfluent, serum-starved (24 hr), HeLa cells were cultured on 22 mm coverslips in DMEM in a humidified atmosphere containing 5% CO2. […] Microinjections were performed with an Eppendorf (Brinkman Instruments, Westbury, N.Y.) 5246 microinjection apparatus mounted on the microscope inside the environmental chamber. The peptide was estimated to be diluted 10-fold upon microinjection, using the equation for volume (V) flow through a capillary tube:
[formula] where p is the difference in pressure at the ends of the tube (290 hPa), r the radius (0.05 μm) and l the length (10 μm) of the tube, η the viscosity of the injected solution (0.69×10^−2 g/cm-sec), and t the total injection time (0.3 sec). The average volume of a fibroblast was taken as 2 pL.^18 12-O-tetradecanoyl phorbol-13-acetate (TPA) (1 μM) was added to the media following microinjection to stimulate PKC activity. […] Fluorescence intensity measurements were corrected using values from a standard photobleaching curve generated from control experiments with microinjected HeLa cells that had not been treated with TPA. […]

PKC = conditions: cited from earlier work

In the case of `CN(C)CCCn1cc(C2=C(c3c[nH]c4ccccc34)C(=O)NC2=O)c2ccccc21` [GF 109203X], the “effect of inhibitor on TPA-induced enhancement in cellular fluorescence” value (PKC in HeLa cells) is listed as “effectively blocks the TPA-induced enhancement in cellular fluorescence” and the Ki (PKC) is listed as “low nanomolar range”.
